Assay results from US8629277B2, “Styrenyl 1,2,4-oxadiazole compounds” (Piramal Enterprises Limited, priority 2010, dated 2014).
Counter-ions that a name gives are not always drawn. Like-named read-outs stand apart in the source and are kept apart here.

Key:
Ba/F3 Bcr-Abl/WT = biological target: T1, Ba/F3 Bcr-Abl/WT (Homo sapiens, UniProt P00519); assay: Cell proliferation and cytotoxicity CCK-8 assay; type: cell-based; conditions: imatinib sensitive cell line; CCK-8, 72 h; read-out: Inhibitory concentrations (IC50) Ba/F3 Bcr-Abl/WT
T1 construct: fused on or other part: P11274 (Breakpoint cluster region protein)
Source text: (§1) Cell Proliferation and Cytotoxicity CCK-8 Assay:
(§2) Cell Counting Kit-8 (CCK-8) assay is a sensitive colorimetric assay for the determination of number of viable cells in cell proliferation and cytotoxicity assays. Cell Counting Kit-8 (CCK-8) utilizes Dojindo's highly water-soluble tetrazolium salt. The amount of the formazan dye generated by dehydrogenases in cells is directly proportional to the number of living cells.
(§3) The cell lines described in Table 1 were used to test the antiproliferative activity of the compounds of the present invention.
(§4) Cells were seeded at a density of ˜5×10^3 per well (0.09 mL) in a transparent 96-well tissue culture plate (NUNC, USA) and allowed to incubate at 37° C., 5% CO2 incubator for 2-6 h. Different concentrations of compounds of the present invention were added to the wells of the culture plate in triplicate. […] Plates were further incubated in an incubator at 37° C. in presence of 5% CO2 for 72 h. 10 μL of the CCK-8 solution was added to each well and plate was incubated for 1-4 h in the incubator. The absorbance was measured at 450 nm using a microplate reader. The percent inhibition and IC50 were calculated in comparison with control values.

K562 [1] = assay: Cell proliferation and cytotoxicity CCK-8 assay; type: cell-based, human; conditions: imatinib sensitive cell line K562, CCK-8, 72 h, read-out: Inhibitory concentrations (IC50) K562
Ba/F3 Bcr-Abl/T315I = Ba/F3 Bcr-Abl/T315I (Homo sapiens, UniProt P00519, T315I, cells depend on it); conditions: read-out: Inhibitory concentrations (IC50) Ba/F3 Bcr-Abl/T315I; imatinib resistant cell line; CCK-8, 72 h
Source text: as §1, §2, §3, §4

Ba/F3 = assay: Flow cytometric analysis of apoptosis (PI staining); type: cell-based
Experimental: (§5) Effect of the Compounds of Present Invention in Bcr-Abl Mutated Imatinib Mesylate-Resistant Cell Lines on Cell Cycle and Apoptosis Using Flow Cytometry.
(§6) The assay was carried out as in reference, FEBS Letters, 2007, 581, 7, 1329-1334. […] At the end of incubation, cells were harvested by centrifugation at 1000 rpm for 10 minutes, washed with phosphate buffered saline (PBS) and gradually resuspended in 70% ice-cold ethanol (to facilitate the permeablisation of stains). Cell suspension was stored for a minimum period of 4 h before staining with propidium iodide (PI). Fixed cells were stained with PI (80 μg/mL) in presence of RNase A (50 μg/mL), and read on Becton Dickinson FACS Calibur (USA) for cell cycle analysis.

E255V = assay: as above; type: cell-based
Experimental: as §5, §6

Y253 = assay: as above; type: cell-based
Experimental: as §5, §6

T315I = assay: as above; type: cell-based
Experimental: as §5, §6

K562 [2] = assay: as above; type: cell-based, human
Experimental: as §5, §6

| SMILES | GI50 (Ba/F3 Bcr-Abl/T315I) | GI50 (Ba/F3 Bcr-Abl/WT) | IC50 (K562 [1]; Homo sapiens) | further results |
| --- | --- | --- | --- | --- |
| Cc1noc(C=Cc2ccc(O)c(O)c2)n1 [Compound of Example 1, 4-[2-(3-Methyl-[1,2,4]oxadiazol-5-yl)-vinyl]-benzene-1,2-diol] | 11 to 100 µM | 11 to 100 µM | 11 to 100 µM | – |
| CCCc1noc(C=Cc2ccc(O)c(NS(C)(=O)=O)c2)n1 [Compound of Example 10, N-{2-Hydroxy-5-[2-(3-propyl-[1,2,4]oxadiazol-5-yl)-vinyl]-phenyl}-methanesulfonamide] | 11 to 100 µM | 11 to 100 µM | > 100 µM | – |
| CN1CCC(c2noc(C=Cc3ccc(O)c(O)c3)n2)CC1 [Compound of Example 20, 4-[2-(3-Piperidin-4,1-methyl-[1,2,4]oxadiazol-5-yl)-vinyl]-benzene-1,2-diol] | 11 to 100 µM | 11 to 100 µM | – | IC50 (K562 [1]): 11 to 100 µM |
| CC(C)N1CCC(Cc2noc(C=Cc3ccc(O)c(O)c3)n2)CC1 [Compound of Example 22, 4-{2-[3-(1-Isopropyl-piperidin-4-ylmethyl)-[1,2,4]oxadiazol-5-yl]-vinyl}-benzene-1,2-diol] | 11 to 100 µM | 11 to 100 µM | 11 to 100 µM | – |
| CN(C)CCN1CCC(Cc2noc(C=Cc3ccc(O)c(O)c3)n2)CC1 [Compound of Example 24, 4-(2-{3-[1-(2-Dimethylamino-ethyl)-piperidin-4-ylmethyl]-[1,2,4]oxadiazol-5-yl}-vinyl)-benzene-1,2-diol] | 11 to 100 µM | 11 to 100 µM | 11 to 100 µM | – |
| Oc1ccc(C=Cc2nc(CC3CCN(Cc4ccccc4)CC3)no2)cc1O [Compound of Example 31, 4-{2-[3-(1-Benzyl-piperidin-4-ylmethyl)-[1,2,4]oxadiazol-5-yl]-vinyl}-benzene-1,2-diol] | 11 to 100 µM | 11 to 100 µM | 11 to 100 µM | – |
| Oc1ccc(C=Cc2nc(C3CCCCCC3)no2)cc1O [Compound of Example 58, 4-[2-(3-Cycloheptyl-[1,2,4]oxadiazol-5-yl)-vinyl]-benzene-1,2-diol] | < 10 µM | < 10 µM | 11 to 100 µM | – |
| Oc1ccc(C=Cc2nc(C3CCCCC3)no2)cc1O [Compound of Example 61, 4-[2-(3-Cyclohexyl-[1,2,4]oxadiazol-5-yl)-vinyl]-benzene-1,2-diol] | < 10 µM | < 10 µM | 11 to 100 µM | – |
| Cc1ccc(NC(=O)c2ccc(CN3CCN(C)CC3)cc2)cc1Nc1nccc(-c2cccnc2)n1 [imatinib mesylate, Imatinib mesylate, reference compound] | – | – | – | % Apoptosis by Flow Cytometry Analysis (Ba/F3; 3X IC50, 96 h time point): 51%; % Apoptosis by Flow Cytometry Analysis (Ba/F3; 5X IC50, 48 h time point): 40.3%; % Apoptosis by Flow Cytometry Analysis (Ba/F3; 5X IC50, 96 h time point): 31%; % Apoptosis by Flow Cytometry Analysis (E255V; 3X IC50, 96 h time point): 61%; % Apoptosis by Flow Cytometry Analysis (E255V; 5X IC50, 48 h time point): 96.7%; % Apoptosis by Flow Cytometry Analysis (E255V; 5X IC50, 96 h time point): 98.4%; % Apoptosis by Flow Cytometry Analysis (Y253; 3X IC50, 96 h time point): 85.2%; % Apoptosis by Flow Cytometry Analysis (Y253; 5X IC50, 48 h time point): 78%; % Apoptosis by Flow Cytometry Analysis (Y253; 5X IC50, 96 h time point): 98.2%; % Apoptosis by Flow Cytometry Analysis (T315I; 3X IC50, 96 h time point): 26.6%; % Apoptosis by Flow Cytometry Analysis (T315I; 5X IC50, 48 h time point): 4.3%; % Apoptosis by Flow Cytometry Analysis (T315I; 5X IC50, 96 h time point): 25.2%; % Apoptosis by Flow Cytometry Analysis (K562 [2]; 3X IC50, 96 h time point): 95%; % Apoptosis by Flow Cytometry Analysis (K562 [2]; 5X IC50, 48 h time point): 3.9%; % Apoptosis by Flow Cytometry Analysis (K562 [2]; 5X IC50, 96 h time point): 92.6% |

Continued, in another order:

| GI50 (Ba/F3 Bcr-Abl/T315I) | SMILES | GI50 (Ba/F3 Bcr-Abl/WT) | IC50 (K562 [1]; Homo sapiens) | further results |
| --- | --- | --- | --- | --- |
| < 10 µM | CCc1noc(C=Cc2ccc(O)c(O)c2)n1 [Compound of Example 2, 4-[2-(3-Ethyl-[1,2,4]oxadiazol-5-yl)-vinyl]-benzene-1,2-diol] | < 10 µM | < 10 µM | – |
| < 10 µM | CCCc1nc(C=Cc2ccc(O)c(N)c2)no1 [Compound of Example 12, 2-Amino-4-[2-(5-propyl-[1,2,4]oxadiazol-3-yl)-vinyl]-phenol] | 11 to 100 µM | 11 to 100 µM | – |
| < 10 µM | CCCCCCCCCc1noc(C=Cc2ccc(O)c(O)c2)n1 [Compound of Example 34, 4-[2-(3-Nonyl-[1,2,4]oxadiazol-5-yl)-vinyl]-benzene-1,2-diol] | < 10 µM | 11 to 100 µM | – |
| < 10 µM | Oc1ccc(C=Cc2nc(C3CC3)no2)cc1O [Compound of Example 37, 4-[2-(3-Cyclopropyl-[1,2,4]oxadiazol-5-yl)-vinyl]-benzene-1,2-diol] | < 10 µM | < 10 µM | – |
| < 10 µM | CCCCCc1noc(C=Cc2ccc(O)c(O)c2)n1 [Compound of Example 40, 4-[2-(3-Pentyl-[1,2,4]oxadiazol-5-yl)-vinyl]-benzene-1,2-diol] | < 10 µM | < 10 µM | – |
| < 10 µM | CCCCCCc1noc(C=Cc2ccc(O)c(O)c2)n1 [Compound of Example 43] | < 10 µM | – | IC50 (K562 [1]): < 10 µM |
| < 10 µM | Oc1ccc(C=Cc2nc(CC3CCCCC3)no2)cc1O [Compound of Example 46, 4-[2-(3-Cyclohexylmethyl-[1,2,4]oxadiazol-5-yl)-vinyl]-benzene-1,2-diol] | < 10 µM | < 10 µM | – |
| < 10 µM | CCCCCCCCc1noc(C=Cc2ccc(O)c(O)c2)n1 [Compound of Example 49, 4-[2-(3-Octyl-[1,2,4]oxadiazol-5-yl)-vinyl]-benzene-1,2-diol] | < 10 µM | < 10 µM | – |
| < 10 µM | CCCCCCCc1noc(C=Cc2ccc(O)c(O)c2)n1 [Compound of Example 52, 4-[2-(3-Heptyl-[1,2,4]oxadiazol-5-yl)-vinyl]-benzene-1,2-diol] | < 10 µM | < 10 µM | – |
| < 10 µM | Oc1ccc(C=Cc2nc(-c3cccnc3)no2)cc1O [Compound of Example 55, 4-[2-(3-Pyridin-3-yl-[1,2,4]oxadiazol-5-yl)-vinyl]-benzene-1,2-diol] | < 10 µM | 11 to 100 µM | – |
